Data reported in article PMC9693510, “High-Throughput Metabolic Soft-Spot Identification in Liver Microsomes by LC/UV/MS: Application of a Single Variable Incubation Time Approach” (Molecules, 2022).
Read-outs that look alike come from different tables or passages of the source.

Experiments:
[1] = Metabolic soft-spot determination in HLM using LC/UV/Qtrap
Protocol: A specific incubation time for the individual test compounds was set up for 1–20 min based on their metabolic stability T1/2 values (Table 1). An LC/UV/Qtrap system with an Ultimate XB-C18 column (100 mm × 2.1 mm, 1.8 µm, Welch, China) was employed for quantitative and qualitative analyses of metabolites of the test compounds in HLM incubations. The mobile phases were the same as the metabolic stability assay, and the flow rate was 0.3 mL/min. […] The mass spectrometer was operated in positive ion mode using a successive multiple ion monitoring-triggered enhanced product ion scan (MIM-EPI) mode. […] All the ion source parameters were set as the following values: CUR: 30 psi; IS: 5500 V; TEM: 500 °C; GS1 and GS2: 50 psi; DP: 70 V. A criterion for the data-dependent EPI was set for the three most intense ions in each dynamic background subtraction (DBS) survey scan spectrum with an intensity threshold of 500 cps. The CE was set to 5 eV for the survey scan and 40 eV with CE spread (CES) of 15 eV for the dependent EPI scan. The scan speed for ER and EPI were 250 amu/s and 20,000 amu/s, respectively. LC/UV profiles of individual incubation were generated to reveal major metabolites using wavelengths on the λmax of parent compounds (Table S1). Protonated molecules of major metabolites were determined by matching major metabolite peak(s) in LC/UV profiles to similar ion peaks shown in LC/MS profiles from the MIM scanning or data processing. EIC, PIF, and NLF tools on PeakView SoftwareTM 1.2 (AB SCIEX, Foster City, CA, USA) were used to process LC/MS and LC/MS2 datasets. MS/MS spectral data of major metabolites were retrieved from corresponding LC/MS2 data based on their protonated molecules. The structural characterization of major metabolites was carried based on interpretation of their MS/MS spectra and biotransformation knowledge.

in vitro = settings: human, microsomes, pH 7.4
[2] = Metabolic soft-spot determination in HLM using LC/UV/Q-TOF (Triple TOF); settings: 8 min
Protocol: (§1) Supernatants of incubation samples were dried under nitrogen and then reconstituted in 100 μL of 5% acetonitrile in water prior to analysis using LC/UV/HRMS.
(§2) An LC/MS system consisted of an LC instrument (Shimadzu HPLC with a photodiode array detector (PDA), Shimadzu, Kyoto, Japan) and TripleTOF (AB 4600, Sciex, Framingham, MA, USA) was employed. LC separation was carried out using a Phenomenex Kinetex-C18 (2.1 × 150 mm, 2.6 μm, CA) and a mobile phase comprised of 0.1% formic acid (v/v) in water (solvent A) and 0.1% formic acid in acetonitrile (v/v) (solvent B). The total running time was 5 min, and the flow rate was 0.4 mL/min. […] The mass spectrometer was operating in the positive electrospray ionization mode in the m/z range of 100–1000. Dynamic background subtraction (DBS) was employed to record full-scan MS and MS/MS data simultaneously. Two approaches were used for finding and confirming protonated molecules of major metabolites. One approach was to directly get the information by reviewing full-scan MS spectra of peaks in unprocessed LC/MS dataset, which had very similar LC retention times and peak shapes to those of major metabolites shown in corresponding LC/UV profiles.

[3] = human, 3 µM, pH 7.4; for Major metabolites relative abundance (% of total UV peak areas of drug and its metabolites): 60 min
Protocol: as §1, §2

[4] = 0.5 µM, HLM 0.5 mg/mL, 60 min, LC/MS analysis of the parent drug; cited from earlier work
[5] = Determination of metabolic stability in HLM; settings: human, microsomes, pH 7.4
[6] = HLM, 10 µM, 60 min, cited from earlier work

CCNCc1cc(Nc2ccnc3cc(Cl)ccc23)ccc1O [AM1]
Major metabolites relative abundance (% of total UV peak areas of drug and its metabolites) ([1]; human, 1 min, 3 µM, pH 7.4): Deethylation: AM1 (26.5%)

CCN(CC)Cc1cc(Nc2ccnc3cc(Cl)ccc23)ccc1O [Amodiaquine, amodiaquine]
Disappearance of the parent ([1]; human, 1 min, 3 µM, pH 7.4): 23%
The parent drug relative abundance (% of total UV peak areas of drug and its metabolites) ([1]; human, 1 min, 3 µM, pH 7.4): Amodiaquine (77.0%)
half-life at 0.5 µM (in vitro): 1.3 min

O=C1CC2(CCC(O)C2)CC(=O)N1CCCCN1CCN(c2ncccn2)CC1 (centres unmarked) [B3]
Major metabolites relative abundance (% of total UV peak areas of drug and its metabolites) ([2]; buspirone 3 μM): 12.1%

O=C1CC2(CCCC2)C(O)C(=O)N1CCCCN1CCN(c2ncccn2)CC1 (centres unmarked) [B10]
Major metabolites relative abundance (% of total UV peak areas of drug and its metabolites) ([2]; buspirone 3 μM): 16.5%

O=C1CC2(CCCC2)CC(=O)N1CCCCN1CCN(c2ncc(O)cn2)CC1 [B12]
Major metabolites relative abundance (% of total UV peak areas of drug and its metabolites) ([2]; buspirone 3 μM): 5.2%

O=C1CC2(CCCC2)CC(=O)N1CCCC[N+]1([O-])CCN(c2ncccn2)CC1 [B15]
Major metabolites relative abundance (% of total UV peak areas of drug and its metabolites) ([2]; buspirone 3 μM): 7.1%

O=C1CC2(CCCC2)CC(=O)N1CCCCN1CCN(c2ncccn2)CC1 [Buspirone, buspirone, reference compound]
The parent drug relative abundance (% of total UV peak areas of drug and its metabolites) ([3]; 8 min): Buspirone (59.1%)
T1/2 in HLM [4]: Buspirone ^d (7.6 min)

COc1ccc2c(c1)[C@]13CCCC[C@@H]1[C@H](C2)N(C)CC3 [Dextromethorphan, dextromethorphan]
The parent drug relative abundance (% of total UV peak areas of drug and its metabolites) ([1]; dextromethorphan 3 μM, 30 min, HLM): Dextromethorphan (75.5%)
The parent drug relative abundance (% of total UV peak areas of drug and its metabolites) ([1]; dextromethorphan 3 μM, 30 min, HLM, listed as dextromethorphan): 75.5%
half-life at 0.5 µM [5]: 24 min

CN1CCN2c3ncc(O)cc3Cc3ccccc3C2C1 (centres unmarked) [M1]
Major metabolites relative abundance (% of total UV peak areas of drug and its metabolites) [3]: 10.7%

c1ccc2c(c1)Cc1cccnc1N1CCNCC21 (centres unmarked) [M2]
Major metabolites relative abundance (% of total UV peak areas of drug and its metabolites) [3]: 8.1%

OCc1ncc2n1-c1ccc(Cl)cc1C(c1ccccc1F)=NC2 [MM2]
Major metabolites relative abundance (% of total UV peak areas of drug and its metabolites) ([1]; midazolam 3 μM, 2 min, HLM): Mono-oxidation: MM2 (29.0%)

Cc1ncc2n1-c1ccc(Cl)cc1C(c1ccccc1F)=NC2 [Midazolam, midazolam]
Disappearance of the parent ([1]; midazolam 3 μM, 2 min, HLM): 31%

CNCCCC(C#N)(c1ccc(OC)c(OC)c1)C(C)C (centres unmarked) [V1]
Major metabolites relative abundance (% of total UV peak areas of drug and its metabolites) ([2]; verapamil 5 μM): 6.1%

COc1ccc(CCNCCCC(C#N)(c2ccc(OC)c(OC)c2)C(C)C)cc1OC (centres unmarked) [V5]
Major metabolites relative abundance (% of total UV peak areas of drug and its metabolites) ([2]; verapamil 5 μM): 14.7%

CNCCCC(C#N)(c1ccc(OC)c(OC)c1)C(C)C (centres unmarked) [VM2]
Major metabolites relative abundance (% of total UV peak areas of drug and its metabolites) ([1]; human, 4 min, 3 µM, pH 7.4): 8.9%

COc1ccc(CCNCCCC(C#N)(c2ccc(OC)c(OC)c2)C(C)C)cc1OC (centres unmarked) [VM8]
Major metabolites relative abundance (% of total UV peak areas of drug and its metabolites) ([1]; human, 4 min, 3 µM, pH 7.4): 19.0%

CN(C)CCC1(c2ccccc2)CCc2ccccc2C1=O (centres unmarked) [nafenodone]
Disappearance of the parent ([6]; estimated): over 80%
Number of oxidative metabolites formed [6]: 26
